Measured values published in the NIST ThermoML archive (doi:10.1016/j.jct.2019.05.017).
Numbers after ± are expanded uncertainties.

Legend:
[1] = 101.3 kPa, Liquid, Vibrating tube method
[2] = wn = mass fraction of the nth substance listed; settings: 101.3 kPa, Liquid, Vibrating tube method

SMILES | mass density ([1]; 303.15 K) | mass density ([1]; 313.15 K) | mass density ([1]; 293.15 K) | mass density ([1]; 298.15 K) | mass density ([1]; 308.15 K) | mass density ([1]; 318.15 K) | mass density ([1]; 323.15 K) | mass density ([1]; 328.15 K) | mass density ([1]; 333.15 K) | other results
NCCO [2-aminoethan-1-ol] | 1008.8 ± 2 kg/m3 | 1000.9 ± 2 kg/m3 | – | – | – | – | – | – | – | –
CCOCCO [2-ethoxyethan-1-ol] | 920.7 ± 2 kg/m3 | 911.5 ± 2 kg/m3 | 929.7 ± 2 kg/m3 | 925.2 ± 2 kg/m3 | 916.1 ± 2 kg/m3 | 906.8 ± 2 kg/m3 | 902.1 ± 2 kg/m3 | 897.4 ± 2 kg/m3 | 892.6 ± 2 kg/m3 | –
CCOCCO [2-ethoxyethan-1-ol] + NCCO | – | – | – | – | – | – | – | – | – | mass density ([2]; 293.15 K, w2 = 0.318): 960.2 ± 2 kg/m3; mass density ([2]; 298.15 K, w2 = 0.318): 956 ± 2 kg/m3; mass density ([2]; 303.15 K, w2 = 0.318): 951.7 ± 2 kg/m3; mass density ([2]; 308.15 K, w2 = 0.318): 947.4 ± 2 kg/m3; mass density ([2]; 313.15 K, w2 = 0.318): 943 ± 2 kg/m3; mass density ([2]; 318.15 K, w2 = 0.318): 938.7 ± 2 kg/m3; mass density ([2]; 323.15 K, w2 = 0.318): 934.3 ± 2 kg/m3; mass density ([2]; 328.15 K, w2 = 0.318): 929.8 ± 2 kg/m3; mass density ([2]; 333.15 K, w2 = 0.318): 925.4 ± 2 kg/m3
COCCO [2-methoxyethan-1-ol] | 955.5 ± 2 kg/m3 | 946.2 ± 2 kg/m3 | 964.7 ± 2 kg/m3 | 960.1 ± 2 kg/m3 | 950.9 ± 2 kg/m3 | 941.5 ± 2 kg/m3 | 936.7 ± 2 kg/m3 | 932 ± 2 kg/m3 | 927.2 ± 2 kg/m3 | mass density ([1]; 283.15 K): 974.7 ± 2 kg/m3; mass density ([1]; 288.15 K): 969.9 ± 2 kg/m3
COCCO [2-methoxyethan-1-ol] + NCCO | – | – | – | – | – | – | – | – | – | mass density ([2]; 293.15 K, w2 = 0.31): 985.5 ± 2 kg/m3; mass density ([2]; 298.15 K, w2 = 0.31): 981.1 ± 2 kg/m3; mass density ([2]; 303.15 K, w2 = 0.31): 976.8 ± 2 kg/m3; mass density ([2]; 308.15 K, w2 = 0.31): 972.5 ± 2 kg/m3; mass density ([2]; 313.15 K, w2 = 0.31): 968.1 ± 2 kg/m3; mass density ([2]; 318.15 K, w2 = 0.31): 963.7 ± 2 kg/m3; mass density ([2]; 323.15 K, w2 = 0.31): 959.2 ± 2 kg/m3; mass density ([2]; 328.15 K, w2 = 0.31): 954.8 ± 2 kg/m3; mass density ([2]; 333.15 K, w2 = 0.31): 950.3 ± 2 kg/m3
